# From patent US11596650B2, “Composition and method for the treatment of type 2 diabetes” (Vector Vitale IP LLC, priority 2019, dated 2023)
# Experiment: Accumulation of metals in liver and kidney tissues, intraperitoneal administration to intact rats
# Assay type: in vivo, rat
# Procedure: Animals are placed in cages, 4 per cage, with free access to food/water. […] After the last injection, a half of the animals are maintained on hunger (for 12 hours) with free access to water. Upon expiration of this time period, the animals are taken out of the experiment. The second half of the animals continues to have free access to food/water for a further 7 days. On day 6 after the last injection, the animals are maintained on hunger (for 12 hours) with free access to water. Upon expiration of this time period, the animals are taken out of the experiment.
# The total kidney, liver and muscle homogenates were prepared as follows. Organ excision and homogenization were carried out at a temperature of 1-4° C. […] The volume of the used buffer in ml was 5 times larger than the mass of isolated organs in grams. The isolated liver was perfused with chilled saline (0.9% NaCl) via the portal vein using a syringe. The minced liver was transferred to a homogenizer with a finely ground Teflon pestle and homogenized in chilled buffer. An isolated pair of kidneys was perfused with chilled saline, released from adipose tissue and minced with scissors. The minced tissue was transferred to a homogenizer with a finely ground Teflon pestle and homogenized in chilled buffer. The total kidney and liver homogenates were centrifuged at 600 g for 15 minutes. […]
smiles,measurement,setting,value
"CC(=O)[O-].CC(=O)[O-].[Zn+2] [Zn acetate, Zinc acetate]",Zinc in the kidney and liver tissues,day 1 and day 7 after discontinuation of the substances,significantly increased
same,All other analyzed metals (manganese and copper) in kidney and liver tissues,"intact rats, intraperitoneal",within the same concentrations as in the control group
